In US6569996B1, “Antibody that specifically binds to the cadherin-5 cell adhesion recognition sequence” (Adherex Technologies, Inc., priority 1998, dated 2003):

How the values were obtained:
[1] = test system: MDA-MB-231 human breast cancer cells; test: Disruption of human breast cancer cell adhesion (phase contrast microscopy); assay type: cell-based; settings: 100 μl of 10 mg/ml peptide stock added to 1 ml DMEM containing 5% serum; for cell morphology and attachment to the substratum: after 24 hours, cells express cadherin-11 (OB-cadherin) but not N-cadherin or E-cadherin
Protocol: MDA-MB-231 human breast cancer cells (Lombardi Cancer Research Center, Washington, D.C.) were used in these experiments. They express cadherin-11 (also known as OB-cadherin) but not N-cadherin or E-cadherin. The cells were plated (˜50.000 cells) on glass coverslips and cultured for 24 hours in DMEM containing 5% serum. Peptides (N-Ac-IFVIDDKSG-NH2 (SEQ ID NO:85) and H-IFVIDDKSG-OH (SEQ ID NO:85)) were dissolved in sterile water (10 mg/ml), and 100 μl of each peptide stock solution was added to 1 ml of DMEM containing 5% serum. Control cells had 100 μl of water added to the medium. Cells were monitored by phase contrast microscopy. After 24 hours cells were fixed in formaldehyde. […] The amino acid sequence of this peptide is identical to that which is found in the first extracellular domain of OB-cadherin.

[2] = test system: Human umbilical vein endothelial cells; test: Disruption of endothelial cell adhesion (VE-cadherin immunolabeling); assay type: cell-based
Protocol: Human umbilical vein endothelial cells were cultured using standard procedures (see Ichikawa et al., Amer. J. Physiol. 273 (Gastrointest. Liver Physiol. 36): […], 1997). Cells were maintained in EGM (Clonetics, San Diego, Calif.) and used at P2 for all experiments. Endothelial identity was established by Dil-LDL and factor VIII staining.
The cells were cultured on glass coverslips. Monolayers were exposed to peptides at a concentration of 75 μg/mL for 60 minutes. The cells were then fixed with 95% ethanol for 30 minutes at 4° C., followed by acetone for one minute and left to air dry at room temperature. Primary antibody for VE-cadherin (Immunotech, MarseiIles, France; 1:250) was added for one hour at 37° C. Coverslips were then washed with 0.1% milk/PBS solution three times for five minutes each. Secondary antibody (1:250), goat anti-rabbit FITC (Zymed, San Francisco, Calif.) was incubated at 37° C. for one hour. Coverslips were again washed with 0.1% milk/PBS solution three times for five minutes each. Coverslips were mounted with anti-quenching solution (1 mg/mL phenylenediamine (Sigma, St. Louis, Mo.) in 50% glycerol, 50% PBS). All photographs were taken at 400× and 1000× with exposure times of 12 seconds.

| Substance | cell morphology and attachment to the substratum [1] | effect on cell adhesion ([1]; 24 hours) | activity relative to similar peptide without the N- and C-terminal functional groups ([2]; 75 μg/mL for 60 minutes, comparison with H-VFRVDAETGD-OH) | effect on endothelial cell adhesion ([2]; 75 μg/mL peptide for 60 minutes, monolayers on glass coverslips, VE-cadherin immunolabel, 400× and 1000×) |
| --- | --- | --- | --- | --- |
| H-IFVIDDKSG-OH | remained flattened and well-attached to the substratum |  |  |  |
| N-Ac-IFVIDDKSG-NH2 | rounded up from each other and were not well-attached to the substratum | interferes with cell adhesion |  |  |
| N-Ac-VFRVDAETGD-NH2 |  |  | substantially greater | disrupts endothelial cell adhesion |
